For assay [1], the system named is REL-A (p65) nuclear translocation, HeLa cells. Put plainly: REL-A (p65) nuclear translocation assay in HeLa cells (classical NF-kB signaling, TNF-α stimulated). Format: cell-based. Particulars: Homo sapiens, 0.5 h; HeLa cells, 10 ng/mL TNF-α for 30 minutes; read-out: REL-A HeLa Transloc Assay (IC50). The procedure, abridged:
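HeLa cells were exposed to test compounds at various concentrations (0.2% DMSO final) in medium with 10% fetal bovine serum for 4.5 hours, then stimulated for 30 minutes with 10 ng/mL TNF-α. After fixation in 4% paraformaldehyde, 0.1% Triton X-100 permeabilization and staining with 400 ng/mL anti-REL-A (p65) antibody, Alexa488 secondary and DRAQ5, Opera imaging gave nuclear-to-cytoplasmic signal ratios to calculate IC50.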

Assay [2] deals with nuclear factor-kappa B (NF-kB)-inducing kinase (NIK) (Homo sapiens (Human), UniProt Q99558). Put plainly: NIK enzyme inhibition assay (Transcreener ADP, NIK ADP-FP). Format: biochemical. The conditions noted are these: purified NIK 0.5 nM, 10 μM ATP, fluorescence polarization; read-out: NIK ADP-FP (Ki μM). (In general: In fluorescence polarisation assays a small probe gives low polarisation when free and higher when bound to something large.)
Chain of nuclear factor-kappa B (NF-kB)-inducing kinase (NIK) (Q99558 whole entry): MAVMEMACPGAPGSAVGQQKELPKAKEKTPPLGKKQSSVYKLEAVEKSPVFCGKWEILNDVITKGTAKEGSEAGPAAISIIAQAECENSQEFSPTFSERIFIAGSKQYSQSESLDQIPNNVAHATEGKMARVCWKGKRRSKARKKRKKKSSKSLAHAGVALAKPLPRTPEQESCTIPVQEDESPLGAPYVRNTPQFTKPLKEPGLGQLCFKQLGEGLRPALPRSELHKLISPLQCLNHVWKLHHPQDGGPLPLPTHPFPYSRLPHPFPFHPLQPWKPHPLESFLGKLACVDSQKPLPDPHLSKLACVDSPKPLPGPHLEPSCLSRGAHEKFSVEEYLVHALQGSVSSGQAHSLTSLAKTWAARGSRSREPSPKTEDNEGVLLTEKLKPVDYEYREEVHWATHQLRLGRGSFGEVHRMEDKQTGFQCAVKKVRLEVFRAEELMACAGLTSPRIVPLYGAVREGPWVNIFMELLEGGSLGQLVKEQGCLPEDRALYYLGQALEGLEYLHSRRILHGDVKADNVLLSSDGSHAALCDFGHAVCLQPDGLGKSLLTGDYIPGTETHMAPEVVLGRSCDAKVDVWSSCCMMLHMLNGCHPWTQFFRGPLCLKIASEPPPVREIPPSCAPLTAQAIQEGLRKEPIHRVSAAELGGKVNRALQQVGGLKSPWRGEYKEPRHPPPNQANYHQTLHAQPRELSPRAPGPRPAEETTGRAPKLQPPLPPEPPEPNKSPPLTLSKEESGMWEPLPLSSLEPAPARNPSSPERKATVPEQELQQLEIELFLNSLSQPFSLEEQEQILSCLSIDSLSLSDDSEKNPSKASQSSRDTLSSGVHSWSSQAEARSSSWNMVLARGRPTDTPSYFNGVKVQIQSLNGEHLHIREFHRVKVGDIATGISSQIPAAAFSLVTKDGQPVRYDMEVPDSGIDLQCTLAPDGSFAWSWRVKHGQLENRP

Assay [3] has as its system p52 (NF-kB2) nuclear translocation, HeLa cells. The assay can be described thus: p52 (NF-kB2) nuclear translocation assay in HeLa cells (non-classical NF-kB signaling, anti-lymphotoxin beta receptor antibody stimulated). Format: cell-based. The conditions noted are these: Homo sapiens, 100 ng/mL anti-lymphotoxin beta receptor antibody for 5 hours, read-out: p52 HeLa Transloc Assay (IC50). The procedure, abridged: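 HeLa cells in 10% FBS medium were treated with compound (0.2% DMSO final) and stimulated with 100 ng/mL anti-lymphotoxin beta receptor antibody for 5 h. Fixed cells were immunostained for p52 and imaged with DRAQ5 nuclear stain. Translocation is the nuclear to cytoplasmic intensity ratio, and IC50 values are in micromolar.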

By IC50 is commonly meant the concentration needed to halve the response being measured. One may read the Ki as the equilibrium dissociation constant of an inhibitor or competing ligand from its target.

`Cc1cc([C@](C)(O)C#Cc2ccnc(-n3nc(C(N)=O)c4c3CCCC4)c2)no1` [Compound 60, 1-[4-[(3R)-3-hydroxy-3-(5-methylisoxazol-3-yl)but-1-ynyl]-2-pyridyl]-4,5,6,7-tetra-hydroindazole-3-carbox-amide]: the IC50 turned out to be 20000 nM in assay [1] and 2310 nM in assay [3]. In addition, the Ki in assay [2] worked out at 13.7 nM.

Regarding `CN1CC[C@@](O)(C#Cc2cccc(-n3nc(C(N)=O)c4ccnnc43)c2)C1=O` [Compound 174, 1-[3-[2-[(3R)-3-hydroxy-1-methyl-2-oxo-pyrrolidin-3-yl]ethynyl]phenyl]pyrazolo [3,4-c]pyridazine-3-carbox-amide], the IC50 in assay [1] and in assay [3] was 2000 nM in each case. Further, the Ki in assay [2] came to 0.13 nM.

`CN1CC[C@@](O)(C#Cc2cccc(-c3nc(C(N)=O)n4ccc(C#N)cc34)c2)C1=O` [Compound 90, 7-cyano-1-[3-[2-[(3R)-3-hy-droxy-1-methyl-2-oxo-pyrroli-din-3-yl]ethynyl]phenyl] imidazo[1,5-a]pyridine-3-car-boxamide]: the results for the IC50 in assay [1] and in assay [3] were 2000 nM and 63.4 nM, respectively. The inhibition constant (Ki) in assay [2] turned out to be 0.05 nM.

On to `C[C@@](O)(C#Cc1cccc(-n2nc(C(N)=O)c3ccccc32)c1)c1c[nH]nn1` [Compound 117, 1-[3-[(3R)-3-hydroxy-3-(1H-triazol-4-yl)but-1-ynyl]phe-nyl]indazole-3-carboxamide], for which the IC50 turned out to be 20000 nM in assay [1] and 74.3 nM in assay [3]. The inhibition constant Ki in assay [2] amounted to 0.32 nM.

As for `CN1CC[C@@](O)(C#Cc2cccc(-n3nc(C(N)=O)c4c3CCCC4)c2)C1=O` [Compound 57, 1-[3-[2-[(3R)-3-hydroxy-1-methyl-2-oxo-pyrrolidin-3-yl]ethynyl]phenyl]-4,5,6,7-tetra-hydroindazole-3-carbox-amide], the IC50 in assay [1] worked out at 20000 nM; in assay [3], 405 nM. Also, the Ki in assay [2] is 1.4 nM.

`CN1CC[C@@](O)(C#Cc2cccc(-n3nc(C(N)=O)c4c3CCCN4)c2)C1=O` [Compound 151, 1-[3-[2-[(3R)-3-hydroxy-1-methyl-2-oxo-pyrrolidin-3-yl]ethynyl]phenyl]-4,5,6,7-tetra-hydropyrazolo[4,3-b]pyri-dine-3-carboxamide]: the figures for the half-maximal inhibitory concentration (IC50) in assay [1] and in assay [3] were 2000 nM and 1030 nM, respectively. Moreover, the Ki in assay [2] came to 3.96 nM.

Turning to `Cc1nnc([C@](C)(O)C#Cc2cccc(-c3nc(C(N)=O)n4cc(Cl)ccc34)c2)o1` [Compound 185, 6-chloro-1-[3-[(3R)-3-hydroxy-3-(5-methyl-1,3,4-oxadiazol-2-yl)but-1-ynyl]phenyl]imidazo[1,5-a]pyridine-3-carboxamide], the figures for the IC50 in assay [1] and in assay [3] were > 2000 nM and 1500 nM, respectively. The inhibition constant (Ki) in assay [2] is 7.54 nM.

For `C[C@@H]1CCc2c1c(C(N)=O)nn2-c1cccc(C#C[C@]2(O)CCN(C)C2=O)c1` [Compound 109, (4R)-1-[3-[2-[(3R)-3-hydroxy-1-methyl-2-oxo-pyrrolidin-3-yl]ethynyl]phenyl]-4-methyl-5,6-dihydro-4H-cyclo-penta[c]pyrazole-3-carbox-amide], the IC50 in assay [1] amounted to 20000 nM; in assay [3], 209 nM. In addition, the Ki in assay [2] is 9.58 nM.

For `CN1CC[C@@](O)(C#Cc2ccc(F)c(-n3nc(C(N)=O)c4c3CCC4)c2)C1=O` [Compound 145, 1-[2-fluoro-5-[2-[(3R)-3-hy-droxy-1-methyl-2-oxo-pyrroli-din-3-yl]ethynyl]phenyl]-5,6-dihydro-4H-cyclopenta [c]pyrazole-3-carboxamide], the IC50 in assay [1] came out at 20000 nM; in assay [3] it was 266 nM. Further, in assay [2], the Ki is 1.24 nM.

Take `CN1CC[C@@](O)(C#Cc2cccc(-n3nc(C(N)=O)c4ccncc43)c2)C1=O` [Compound 148, 1-[3-[2-[(3R)-3-hydroxy-1-methyl-2-oxo-pyrrolidin-3-yl]ethynyl]phenyl]pyrazolo [3,4-c]pyridine-3-carboxamide]: the IC50 in assay [1] was 20000 nM; in assay [3] it was 110 nM. Moreover, the Ki in assay [2] came to 0.38 nM.

Regarding `COc1ccc2c(c1)c(C(N)=O)nn2-c1cccc(C#C[C@]2(O)CCN(C)C2=O)c1` [Compound 14, 1-[3-[2-[(3R)-3-hydroxy-1-methyl-2-oxo-pyrrolidin-3-yl]ethynyl]phenyl]-5-methoxy-indazole-3-carboxamide], the half-maximal inhibitory concentration (IC50) in assay [1] is 20000 nM; in assay [3], 67.8 nM. Further, the Ki in assay [2] came to 0.05 nM.

Consider `N#Cc1cc2c(cn1)c(C(N)=O)nn2-c1cccc(C#C[C@@]2(O)CCc3cccnc32)c1` [Compound 135, 6-cyano-1-[3-[2-[(7S)-7-hy-droxy-5,6-dihydrocyclopen-ta[b]pyridin-7-yl]ethynyl]phe-nyl]pyrazolo[4,3-c]pyridine-3-carboxamide], for which the IC50 turned out to be 20000 nM in assay [1] and 91.4 nM in assay [3]. Besides, the inhibition constant Ki in assay [2] was 0.7 nM.

For `CN1CC[C@@](O)(C#Cc2cccc(-c3nc(C(N)=O)n4ccc(Cl)cc34)c2)C1=O` [Compound 94, 7-chloro-1-[3-[2-[(3R)-3-hy-droxy-1-methyl-2-oxo-pyrroli-din-3-yl]ethynyl]phenyl] imidazo[1,5-a]pyridine-3-carboxamide], the figures for the half-inhibitory concentration (IC50) in assay [1] and in assay [3] were 6320 nM and 7.26 nM, respectively. The Ki in assay [2] is 0.05 nM.

On to `CN1CC[C@@](O)(C#Cc2cccc(-n3nc(C(N)=O)c4cc(C#N)ccc43)c2)C1=O` [Compound 42, 5-cyano-1-[3-[2-[(3R)-3-hy-droxy-1-methyl-2-oxo-pyrroli-din-3-yl]ethynyl]phenyl] indazole-3-carboxamide], for which the half-inhibitory concentration (IC50) in assay [1] amounted to 20000 nM; in assay [3], 392 nM. Further, the Ki in assay [2] was 0.64 nM.

For `CN1CC[C@@](O)(C#Cc2cccc(-n3nc(C(N)=O)c4cc(CO)ccc43)c2)C1=O` [Compound 35, 5-(hydroxymethyl)-1-[3-[2-[(3R)-3-hydroxy-1-methyl-2-oxo-pyrrolidin-3-yl]ethynyl]phenyl]indazole-3-carbox-amide], the 50% inhibitory concentration (IC50) in assay [1] is 20000 nM; in assay [3], 737 nM. In addition, the inhibitory constant (Ki) in assay [2] turned out to be 1.48 nM.

With `Cc1c(Cl)c(C(N)=O)nn1-c1cc(C#C[C@]2(O)CCN(C)C2=O)ccn1` [Compound 78, 4-chloro-1-[4-[2-[(3R)-3-hy-droxy-1-methyl-2-oxo-pyrroli-din-3-yl]ethynyl]-2-pyri-dyl]-5-methyl-pyrazole-3-car-boxamide], the half-maximal inhibitory concentration (IC50) in assay [1] came out at 20000 nM; in assay [3], 2710 nM. For the same compound, in assay [2], the Ki is 16.8 nM.

Consider `CN1CC[C@@](O)(C#Cc2cc(Cl)cc(-n3nc(C(N)=O)c4cccnc43)c2)C1=O` [Compound 44, 1-[3-chloro-5-[2-[(3R)-3-hy-droxy-1-methyl-2-oxo-pyrroli-din-3-yl]ethynyl]phenyl] pyrazolo[3,4-b]pyridine-3-carboxamide], for which the values for the IC50 in assay [1] and in assay [3] were 20000 nM and 62 nM, respectively. Moreover, in assay [2], the inhibition constant (Ki) worked out at 0.5 nM.

Consider `COc1cc2c(cn1)c(C(N)=O)nn2-c1cccc(C#C[C@]2(O)CCN(C)C2=O)c1` [Compound 140, 1-[3-[2-[(3R)-3-hydroxy-1-methyl-2-oxo-pyrrolidin-3-yl]ethynyl]phenyl]-6-methoxy-pyrazolo[4,3-c]pyridine-3-carboxamide], for which the 50% inhibitory concentration (IC50) in assay [1] is 8000 nM; in assay [3] it was 38.2 nM. For the same compound, the Ki in assay [2] is 0.05 nM.

Turning to `CN1CC[C@@](O)(C#Cc2cccc(-n3nc(C(N)=O)c4c3COCC4)c2)C1=O` [Compound 69, 1-[3-[2-[(3R)-3-hydroxy-1-methyl-2-oxo-pyrrolidin-3-yl]ethynyl]phenyl]-5,7-dihy-dro-4H-pyrano[3,4-c]pyrazole-3-carboxamide], the half-inhibitory concentration (IC50) in assay [1] was determined as 20000 nM; in assay [3], 945 nM. In addition, the inhibition constant Ki in assay [2] is 3.98 nM.

Regarding `COc1cc2c(C(N)=O)nn(-c3cccc(C#C[C@]4(O)CCN(C)C4=O)c3)c2cn1` [Compound 150, 1-[3-[2-[(3R)-3-hydroxy-1-methyl-2-oxo-pyrrolidin-3-yl]ethynyl]phenyl]-5-methoxy-pyrazolo[3,4-c]pyridine-3-carboxamide], the figures for the IC50 in assay [1] and in assay [3] were 20000 nM and 57.3 nM, respectively. The Ki in assay [2] turned out to be 0.29 nM.

As to `COc1ccc2c(c1)c(C(N)=O)nn2-c1cc(C#C[C@]2(O)CCN(C)C2=O)ccn1` [Compound 65, 1-[4-[2-[(3R)-3-hydroxy-1-methyl-2-oxo-pyrrolidin-3-yl]ethynyl]-2-pyridyl]-5-meth-oxy-indazole-3-carboxamide], the IC50 in assay [1] is 2000 nM; in assay [3], 14 nM. The inhibition constant (Ki) in assay [2] was determined as 0.05 nM.

`Cc1nnc([C@](C)(O)C#Cc2cccc(-c3nc(C(N)=O)n4ccc(Cl)cc34)c2)o1` [Compound 187, 7-chloro-1-[3-[(3R)-3-hydroxy-3-(5-methyl-1,3,4-oxadiazol-2-yl)but-1-ynyl]phenyl] imidazo[1,5-a]pyridine-3-carboxamide]: the half-inhibitory concentration (IC50) was > 2000 nM in assay [1] and 198 nM in assay [3]. In addition, the inhibitory constant (Ki) in assay [2] amounted to 1.12 nM.

Consider `CC1Cc2c(C(N)=O)nn(-c3cccc(C#C[C@]4(O)CCN(C)C4=O)c3)c2C1` (stereo partly drawn) [Compound 188, 1-[3-[2-[(3R)-3-hydroxy-1-methyl-2-oxo-pyrrolidin-3-yl]ethynyl]phenyl]-5-methyl-5,6-dihydro-4H-cyclopenta [c]pyrazole-3-carboxamide], for which the results for the IC50 in assay [1] and in assay [3] were > 2000 nM and 205 nM, respectively. Further, the Ki in assay [2] was 0.85 nM.

The record behind these values is patent publication US9605005B2, “Alkynyl alcohols and methods of use” (Genentech, Inc., priority 2013, dated 2017).
